Assay results published in patent US8445409B2, “Use of 5-benzyloxymethyl-1,2-isoxazoline derivatives as a herbicide” (Moghu Research Center Ltd., priority 2007, dated 2013).

What was measured:
Large crabgrass = test: Herbicidal activity at different growth stages, fresh weight suppression; assay type: in vivo; settings: for Suppression ratio relative to the biomass of the untreated group: Large crabgrass 1 leaf / Suppression ratio relative to the biomass of the untreated group: Large crabgrass 2 leaf / Suppression ratio relative to the biomass of the untreated group: Large crabgrass 3 leaf / Suppression ratio relative to the biomass of the untreated group: Large crabgrass 4 leaf / Suppression ratio relative to the biomass of the untreated group: Large crabgrass PRE: fresh weight two weeks after treatment
Method: To a cup pot having a surface area of 100 cm^2 wherein mixed soils including blend bed soil (Boonong, Horticultural Bed Soil No. 3) and sandy loam soil were filled (mixing ratio, 1:1), seeds of large crabgrass and annual bluegrass were sown consecutively at an one week interval. The pots were moistened by sub-irrigation, and kept in a greenhouse maintained at 25˜30° C. (day) or 15˜25° C. (night). The said weeds were grown to various growth stages from pre-emergence to the four-leaf stage. Then, they were applied with the test substance of the present invention at dosage of 2, 1, 0.5, or 0.25 kg/ha. As a reference herbicide, Dithiopyr (32% EC, manufactured by Dongbu Hannong Chemical Company), was applied at 0.96, 0.48, or 0.24 kg/ha. Spray volume was adjusted to 2,000 L/ha. The method to spray of the test substance and prepare spray solutions were the same as described above. The reference herbicide was used after it was diluted with 0.2% (v/v) Tween 20 aqueous solution. The test was conducted in a randomized block design with three replicates. Two weeks after the treatment, plant parts remained above the pot soil surface were cut and the fresh weight was weighed. Results are given by a suppression ratio relative to the biomass that was obtained from the untreated group (see, Table 3).

Zoysiagrass = test: Turfgrass safety test (sod mat pots), visual phytotoxicity; assay type: in vivo, Zoysia japonica; settings: in vivo
Source text: Commercially available sod mats of zoysiagrass and bentgrass, Kentucky bluegrass, and perennial ryegrass were purchased. After cutting each turf sod mat in a size of 10 cm×20 cm, it was transplanted to a rectangular plastic pot having a surface area of 300 cm^2 wherein mixed soils including blend of a bed soil (Boonong, Horticultural Nursery Soil No. 3) and sandy loam soil were filled (mixing ratio, 1:1). After transplanting, the grass was mowed (0.5˜1.0 cm in height) once a week, and kept for one month in a greenhouse maintained at 25˜30° C. (day) or 15˜25° C. (night), then the test substance of the present invention was applied at dosage of 4, 2, 1 and 0.5 kg/ha. As a reference, Dithiopyr (32% EC, manufactured by Dongbu Hannong Chemical Company, KOREA) was applied at the recommended rate of 0.48 kg/ha, or twice or quadruple amount thereof, i.e., 0.96 and 1.92 kg/ha, respectively. Spray was made by a track sprayer equipped with a Teejet 8002 nozzle. Spray volume was adjusted to 2,000 L/ha, which was a typical value for an Asian (Korea and Japan) golf course. The spray solution was prepared by dissolving the “test substance” in acetone and adding the same volume of 0.2% (v/v) Tween 20 aqueous solution. Two, four or six weeks after the spray of the test substance, phytotoxicity to the turfgrass were visually evaluated based on 0 to 10 scale (0: no phytotoxic effect, 10: completely killed). The test was conducted in a randomized block design with a three replicates and the results were summarized in the following Table 2 is an average value of the replicates.

[1] = test system: all the tested gramineous weeds; test: Example 3-1, gramineous weeds as a group; assay type: in vivo, large crabgrass, annual bluegrass, goosegrass; settings: PRE and POST timings, 0.25 kg/ha to 4 kg/ha
Source text: Commercially available sod mats of zoysiagrass and bentgrass, Kentucky bluegrass, and perennial ryegrass were purchased. After cutting each turf sod mat in a size of 10 cm×20 cm, it was transplanted to a rectangular plastic pot having a surface area of 300 cm^2 wherein mixed soils including blend of a bed soil (Boonong, Horticultural Nursery Soil No. 3) and sandy loam soil were filled (mixing ratio, 1:1). After transplanting, the grass was mowed (0.5˜1.0 cm in height) once a week, and kept for one month in a greenhouse maintained at 25˜30° C. (day) or 15˜25° C. (night). Then three strips of 1 cm width were removed by excision with a scissor. The open space was filled with a new soil, and seeds of large crabgrass, annual bluegrass, or goosegrass were sown. The pots were kept in a greenhouse. When the said weeds were grown up to the 3 leaf stage, another set was prepared in the same method. The first set represented post-emergence (POST) and the second set represented pre-emergence (PRE) stages of the weeds (large crabgrass, annual bluegrass, goosegrass). Then the test compound was applied at 0.25, 0.5. 1.0, 2.0, and 4.0 kg/ha. […] Four weeks after the spray of the test substance, phytotoxicity to the turfgrass and herbicidal activity to the said weeds were visually evaluated based on 0 to 100 scale (0: no phytotoxic effect, 100: completely killed). […]

Cc1ccsc1C1=NOC(C)(COCc2c(F)cccc2F)C1 (stereo not drawn) [test substance, 5-(2,6-difluorobenzyl)oxymethyl-5-methyl-3-(4-methylthiophen-5-yl)-1,2-isoxazoline]
Suppression ratio relative to the biomass of the untreated group: Large crabgrass 1 leaf (Large crabgrass; 1 kg/ha): 100%
Suppression ratio relative to the biomass of the untreated group: Large crabgrass 2 leaf (Large crabgrass; 1 kg/ha): 98%
Suppression ratio relative to the biomass of the untreated group: Large crabgrass 3 leaf (Large crabgrass; 1 kg/ha): 94%
Suppression ratio relative to the biomass of the untreated group: Large crabgrass 4 leaf (Large crabgrass; 1 kg/ha): 70%
Suppression ratio relative to the biomass of the untreated group: Large crabgrass PRE (Large crabgrass; 1 kg/ha): 100%
Suppression ratio relative to the biomass of the untreated group: Large crabgrass 1 leaf (Large crabgrass; 2 kg/ha): 100%
Suppression ratio relative to the biomass of the untreated group: Large crabgrass 2 leaf (Large crabgrass; 2 kg/ha): 98%
Suppression ratio relative to the biomass of the untreated group: Large crabgrass 3 leaf (Large crabgrass; 2 kg/ha): 97%
Suppression ratio relative to the biomass of the untreated group: Large crabgrass 4 leaf (Large crabgrass; 2 kg/ha): 76%
Suppression ratio relative to the biomass of the untreated group: Large crabgrass PRE (Large crabgrass; 2 kg/ha): 100%
Suppression of large crabgrass (Large crabgrass; 3-leaf stage, 1 kg/ha or more): ≥ 90%
Suppression ratio relative to the biomass of the untreated group: Large crabgrass 2 leaf (Large crabgrass; .12 kg/ha): 45%
Suppression ratio relative to the biomass of the untreated group: Large crabgrass 4 leaf (Large crabgrass; .12 kg/ha): 16%
Suppression ratio relative to the biomass of the untreated group: Large crabgrass 1 leaf (Large crabgrass; .25 kg/ha): 100%
Suppression ratio relative to the biomass of the untreated group: Large crabgrass 2 leaf (Large crabgrass; .25 kg/ha): 81%
Suppression ratio relative to the biomass of the untreated group: Large crabgrass 3 leaf (Large crabgrass; .25 kg/ha): 72%
Suppression ratio relative to the biomass of the untreated group: Large crabgrass 4 leaf (Large crabgrass; .25 kg/ha): 33%
Suppression ratio relative to the biomass of the untreated group: Large crabgrass PRE (Large crabgrass; .25 kg/ha): 100%
Suppression ratio relative to the biomass of the untreated group: Large crabgrass 1 leaf (Large crabgrass; .5 kg/ha): 100%
Suppression ratio relative to the biomass of the untreated group: Large crabgrass 2 leaf (Large crabgrass; .5 kg/ha): 93%
Suppression ratio relative to the biomass of the untreated group: Large crabgrass 3 leaf (Large crabgrass; .5 kg/ha): 86%
Suppression ratio relative to the biomass of the untreated group: Large crabgrass 4 leaf (Large crabgrass; .5 kg/ha): 65%
Suppression ratio relative to the biomass of the untreated group: Large crabgrass PRE (Large crabgrass; .5 kg/ha): 100%
Suppression of large crabgrass (Large crabgrass; PRE to 2-leaf stage, 0.5 kg/ha or above): ≥ 90%
Control of large crabgrass (in words) (Large crabgrass; over four-leaf stage): suppressed but were not completely controlled
Phytotoxic effect, visual assessment: Zoysiagrass Week 6 (Zoysiagrass; Zoysia japonica (zoysiagrass), 6 weeks): 0.0
Phytotoxic effect, visual assessment: Zoysiagrass Week 2 (Zoysiagrass): 2.7
Phytotoxic effect, visual assessment: Zoysiagrass Week 4 (Zoysiagrass): 1.7
Phytotoxic effect, visual assessment: Zoysiagrass Week 6 (Zoysiagrass): 1.0
Phytotoxic effect, visual assessment: Zoysiagrass Week 2 (Zoysiagrass; zoysiagrass (Zoysia japonica), 2 weeks): 0.0
Phytotoxic effect, visual assessment: Zoysiagrass Week 4 (Zoysiagrass; zoysiagrass (Zoysia japonica), 4 weeks): 0.0
Phytotoxic effect, visual assessment: Zoysiagrass Week 6 (Zoysiagrass; zoysiagrass (Zoysia japonica), 6 weeks): 0.0
Control of tested gramineous weeds (in words) [1]: very effectively
